Assay results taken from article PMC12751015, “Evaluation of Bifunctional, PSMA-Targeted Triazamacrocycle-Picolinates Compatible with the ^18F/^44Sc/^177Lu Isotope Triad” (Journal of Medicinal Chemistry, 2025).

What was measured:
PSMA + tumor = conditions: 2 h p.i., clinically employed agents; ref not printed (Table S11); cited from earlier work
[1] = pH-dependent speciation of ScF complexes by 1H and 45Sc NMR (HypNMR2008 fit); assay type: physicochemical; conditions: Sc3+ complexes, determined by HypNMR2008
From the text: To establish optimal parameters for the formation of ScF ternary complexes, we determined the pH-dependent speciation of ScF complexes with H 3 mpatcn and H 2 mpatcn-am-Bz using ^1H and ^45Sc NMR spectroscopy in accordance with previous methods established for the formation of lanthanide-fluoride complexes (Supporting Information, Section S3). […] Above pH 10, the [Sc(L)-OH] species becomes most favorable, effectively outcompeting the F^– ligand at increasing concentration. Low pH conditions led to the presence of protonated species [Sc(mpatcn)-H]^+, which competes with inner sphere fluorination. […] For both ligands, no statistically significant differences for pH dependence were observed, with the % of [ScF(L)] species remaining constant between pH 3 and 8 (Table ).

Row | SMILES | tumor to blood ratio (PSMA + tumor) | logßML [1] | logßMLF [1] | logßMLOH [1] | logßMLH [1]
1 | O=C(O)CC[C@H](NC(=O)N[C@@H](CCCCNC(=O)c1ccc(F)nc1)C(=O)O)C(=O)O [Pylarify] | 1220 ± 431 | – | – | – | –
2 | CN(Cc1ccccc1)C(=O)CN1CCN(CC(=O)O)CCN(Cc2cccc(C(=O)O)n2)CC1 [mpatcn-am-Bz] | – | 23.2 | 27.8 | 13.7 | –
3 | O=C(O)CN1CCN(CC(=O)O)CCN(Cc2cccc(C(=O)O)n2)CC1 [mpatcn] | – | 23 | 27.7 | 14.2 | 24.9
